Assays:
Format in all cases: biochemical
Pim-3 = Pim-3 (Homo sapiens (Human), UniProt Q86V86); test: Pim-3 kinase assay; settings: 1 mM ATP; read-out: Pim3 IC50
Description: Pim-1 and Pim-3 kinase assays-20 μL reactions were run in white 384 well polystyrene plates dotted with 0.8 μL compound/DMSO in the assay buffer (50 mM Tris, pH 7.5, 0.01% Tween-20, 5 mM mgCl2, 0.01% BSA, 5 mM DTT), containing […] Biotin-labeled BAD peptide substrate (AnaSpec 62269), 1 mM ATP, and 2.5 pM (Pim-1, Invitrogen PV3503) or 1.25 pM (Pim-3, Millipore 14-738) enzyme for 1 h at 25° C. Reactions were stopped by addition of 10 μL STOP Buffer (150 mM Tris, pH=7.5, 150 mM NaCl, 75 mM EDTA, 0.01% Tween-20, 0.3% BSA,) supplemented with Phospho-Bad (Ser112) Antibody (Cell Signaling 9291) diluted 666-fold, and Streptavidin donor beads (PerkinElmer 6760002) along with Protein-A acceptor beads (PerkinElmer 6760137) at 15 μg/mL each. Supplementation of the STOP buffer with beads and stopping the reactions were done under reduced light. Prior to the stopping reactions STOP buffer with beads was preincubated for 1 h in the dark at room temperature. After stopping the reactions, plates were incubated for 1 h in the dark at room temperature before reading on a PHERAstar FS plate reader (BMG Labtech) under reduced light.

Pim-1 = Pim-1 (Homo sapiens (Human), UniProt P11309); test: Pim-1 kinase assay; settings: 1 mM ATP; read-out: Pim1 IC50
Description: Supplementation of the STOP buffer with beads and stopping the reactions were done under reduced light. Prior to the stopping reactions STOP buffer with beads was preincubated for 1 h in the dark at room temperature. After stopping the reactions, plates were incubated for 1 h in the dark at room temperature before reading on a PHERAstar FS plate reader (BMG Labtech) under reduced light.

Pim-2 = Pim-2 (Homo sapiens (Human), UniProt Q9P1W9); test: Pim-2 kinase assay; settings: 1 mM ATP; read-out: Pim2 IC50
Description: Pim-2 kinase assay—20 μL reactions were run in white 384 well polystyrene plates dotted with 0.8 μL compound/DMSO in the assay buffer (50 mM Tris, pH 7.5, 0.01% Tween-20, 5 mM mgCl2, 0.01% BSA, 5 mM DTT), containing […] Fluorescein-labeled CREBtide peptide substrate (Invitrogen PV3508), 1 mM ATP, and 1 nM enzyme (Invitrogen PV3649) for 2 h at 25° C. Reactions were stopped by addition of 10 μL TR-FRET Dilution Buffer (Invitrogen PV3574) with 30 mM EDTA and 1.5 nM LanthaScreen Tb-CREB pSer133 antibody (Invitrogen PV3566). After 30 min. incubation at room temperature, plates were read on a PHERAstar FS plate reader (BMG Labtech).

Pim-1, sequence (P11309 whole entry): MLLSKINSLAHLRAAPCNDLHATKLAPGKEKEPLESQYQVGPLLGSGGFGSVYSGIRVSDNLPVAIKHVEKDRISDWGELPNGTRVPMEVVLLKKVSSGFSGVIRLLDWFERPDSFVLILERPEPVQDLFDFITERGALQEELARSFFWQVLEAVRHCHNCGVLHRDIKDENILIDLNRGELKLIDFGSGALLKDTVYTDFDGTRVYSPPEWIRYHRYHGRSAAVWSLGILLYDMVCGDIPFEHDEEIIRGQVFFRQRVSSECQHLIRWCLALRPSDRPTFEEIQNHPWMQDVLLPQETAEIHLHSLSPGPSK
Pim-2, sequence (Q9P1W9 whole entry): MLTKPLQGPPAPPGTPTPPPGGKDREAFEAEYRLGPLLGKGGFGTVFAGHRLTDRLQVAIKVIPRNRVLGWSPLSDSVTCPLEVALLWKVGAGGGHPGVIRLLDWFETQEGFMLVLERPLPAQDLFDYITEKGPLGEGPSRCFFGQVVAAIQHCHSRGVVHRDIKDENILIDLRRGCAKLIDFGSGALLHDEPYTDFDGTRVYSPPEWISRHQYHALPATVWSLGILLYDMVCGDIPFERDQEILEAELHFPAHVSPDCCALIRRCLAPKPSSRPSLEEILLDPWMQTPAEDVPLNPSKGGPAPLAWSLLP

Structure (SMILES): C[C@H]1CN(c2ccncc2NCc2ccc(F)c(-c3c(F)cncc3F)n2)C[C@@H](N)[C@@H]1O [Example 16, (3R,4R,5S)-3-Amino-5-methyl-1-(3-(((3,3′,5′-trifluoro-[2,4′-bipyridin]-6-yl)methyl)amino)pyridin-4-yl)piperidin-4-ol]
- IC50 (Pim-3): ≤ 10 nM
- IC50 (Pim-1): < 10 nM
- IC50 (Pim-2): 100 to 1000 nM

Structure (SMILES): C[C@H]1CN(c2ccncc2NCc2ccc(F)c(-c3c(F)cccc3C#N)n2)C[C@@H](N)[C@@H]1O [Example 17, 2-(6-((4-((3R,4R,5S)-3-Amino-4-hydroxy-5-methylpiperidin-1-yl)pyridin-3-ylamino)methyl)-3-fluoropyridin-2-yl)-3-fluorobenzonitrile]
- IC50 (Pim-3): ≤ 10 nM
- IC50 (Pim-1): < 10 nM
- IC50 (Pim-2): 100 to 1000 nM

Structure (SMILES): C[C@H]1CN(c2ccncc2NCc2ccc(F)c(-c3ccccc3F)n2)C[C@@H](N)[C@@H]1O [Example 18, (3R,4R,5S)-3-Amino-1-(3-(((5-fluoro-6-(2-fluorophenyl)pyridin-2-yl)methyl)amino)pyridin-4-yl)-5-methylpiperidin-4-ol]
- IC50 (Pim-3): ≤ 10 nM
- IC50 (Pim-1): < 10 nM
- IC50 (Pim-2): 100 to 1000 nM

Structure (SMILES): C[C@@H]1C[C@H](N)CN(c2ccncc2NCc2ccc(F)c(-c3c(F)cccc3F)n2)C1 [Example 19, 4-[(3S,5R)-3-Amino-5-methylpiperidin-1-yl]-N-{[6-(2,6-difluorophenyl)-5-fluoropyridin-2-yl]methyl}pyridin-3-amine]
- IC50 (Pim-3): ≤ 10 nM
- IC50 (Pim-1): < 10 nM
- IC50 (Pim-2): ≤ 100 nM

Structure (SMILES): COc1cccc(F)c1-c1nc(CNc2cnccc2N2C[C@H](C)C[C@H](N)C2)ccc1F [Example 20, 4-((3S,5R)-3-Amino-5-methylpiperidin-1-yl)-N-((5-fluoro-6-(2-fluoro-6-methoxyphenyl)pyridin-2-yl)methyl)pyridin-3-amine]
- IC50 (Pim-3): 10 to 50 nM
- IC50 (Pim-1): < 10 nM
- IC50 (Pim-2): 1000 to 10000 nM

Structure (SMILES): C[C@@H]1C[C@H](N)CN(c2ccncc2NCc2ccc(F)c(-c3c(F)cncc3F)n2)C1 [Example 21, 4-((3S,5R)-3-Amino-5-methylpiperidin-1-yl)-N-((3,3′,5′-trifluoro-2,4′-bipyridin-6-yl)methyl)pyridin-3-amine]
- IC50 (Pim-3): ≤ 10 nM
- IC50 (Pim-1): < 10 nM
- IC50 (Pim-2): 100 to 1000 nM

Structure (SMILES): C[C@@H]1C[C@H](N)CN(c2ccncc2NCc2ccc(F)c(-c3c(F)cccc3C#N)n2)C1 [Example 22, 2-(6-((4-((3S,5R)-3-Amino-5-methylpiperidin-1-yl)pyridin-3-ylamino)methyl)-3-fluoropyridin-2-yl)-3-fluorobenzonitrile]
- IC50 (Pim-3): ≤ 10 nM
- IC50 (Pim-1): < 10 nM
- IC50 (Pim-2): 100 to 1000 nM

Structure (SMILES): C[C@@H]1C[C@H](N)CN(c2ccncc2NCc2ccc(F)c(-c3ccccc3F)n2)C1 [Example 23, 4-((3S,5R)-3-Amino-5-methylpiperidin-1-yl)-N-((5-fluoro-6-(2-fluorophenyl)pyridin-2-yl)methyl)pyridin-3-amine]
- IC50 (Pim-3): ≤ 10 nM
- IC50 (Pim-1): < 10 nM
- IC50 (Pim-2): 100 to 1000 nM

Structure (SMILES): C[C@H]1CN(c2ccncc2NCc2ccc(F)c(-c3c(F)cc(C(C)(C)C#N)cc3F)n2)C[C@@H](N)[C@@H]1O [Example 24, 2-(4-{6-[({4-[(3R,4R,5S)-3-Amino-4-hydroxy-5-methylpiperidin-1-yl]pyridin-3-yl}amino)methyl]-3-fluoropyridin-2-yl}-3,5-difluorophenyl)-2-methylpropanenitrile]
- IC50 (Pim-3): ≤ 10 nM
- IC50 (Pim-1): < 10 nM
- IC50 (Pim-2): ≤ 100 nM

Structure (SMILES): C[C@@H]1C[C@H](N)CN(c2ccncc2NCc2ccc(F)c(-c3c(F)cc(C(C)(C)C#N)cc3F)n2)C1 [Example 24A, 2-(4-{6-[({4-[(3S,5R)-3-Amino-5-methylpiperidin-1-yl]pyridin-3-yl}amino)methyl]-3-fluoropyridin-2-yl}-3,5-difluorophenyl)-2-methylpropanenitrile]
- IC50 (Pim-3): ≤ 10 nM
- IC50 (Pim-1): < 10 nM
- IC50 (Pim-2): ≤ 100 nM

Structure (SMILES): C[C@H]1CN(c2ccncc2NCc2ccc(F)c(-c3c(F)cccc3F)c2)C[C@@H](N)[C@@H]1O [Example 24B, (3R,4R,5S)-3-Amino-5-methyl-1-(3-{[(2′,6,6′-trifluorobiphenyl-3-yl)methyl]amino}pyridin-4-yl)piperidin-4-ol]
- IC50 (Pim-3): ≤ 10 nM
- IC50 (Pim-1): < 10 nM
- IC50 (Pim-2): 100 to 1000 nM

Structure (SMILES): C[C@@H]1C[C@H](N)CN(c2ccncc2NCc2ccc(F)c(-c3c(F)cccc3F)c2)C1 [Example 25, 4-[(3S,5R)-3-Amino-5-methylpiperidin-1-yl]-N-[(2′,6,6′-trifluorobiphenyl-3-yl)methyl]pyridin-3-amine]
- IC50 (Pim-3): ≤ 10 nM
- IC50 (Pim-1): < 10 nM
- IC50 (Pim-2): 100 to 1000 nM

Structure (SMILES): C[C@@H]1C[C@H](N)CN(c2ccncc2NCc2ccc(F)c(-c3c(F)cc(C4(O)CCC4)cc3F)c2)C1 [Example 26, 1-(5′-((4-((3S,5R)-3-Amino-5-methylpiperidin-1-yl)pyridin-3-ylamino)methyl)-2,2′,6-trifluorobiphenyl-4-yl)cyclobutanol]
- IC50 (Pim-3): ≤ 10 nM
- IC50 (Pim-1): < 10 nM
- IC50 (Pim-2): 100 to 1000 nM

Structure (SMILES): C[C@@H]1C[C@H](N)CN(c2ccncc2NCc2ccc(F)c(-c3c(F)cc(C4(O)CCOCC4)cc3F)c2)C1 [Example 27, 4-(5′-((4-((3S,5R)-3-Amino-5-methylpiperidin-1-yl)pyridin-3-ylamino)methyl)-2,2′,6-trifluorobiphenyl-4-yl)tetrahydro-2H-pyran-4-ol]
- IC50 (Pim-3): ≤ 10 nM
- IC50 (Pim-1): < 10 nM
- IC50 (Pim-2): 100 to 1000 nM

Structure (SMILES): C[C@H]1CN(c2ccncc2NCc2cccc(-c3c(F)cccc3F)n2)C[C@@H](N)[C@@H]1O [Example 28, (3R,4R,5S)-3-Amino-1-[3-({[6-(2,6-difluorophenyl)pyridin-2-yl]methyl}amino)pyridin-4-yl]-5-methylpiperidin-4-ol]
- IC50 (Pim-3): ≤ 10 nM
- IC50 (Pim-1): < 10 nM
- IC50 (Pim-2): 100 to 1000 nM

Structure (SMILES): C[C@@H]1C[C@H](N)CN(c2ccncc2NCc2cccc(-c3c(F)cccc3F)n2)C1 [Example 29, 4-[(3S,5R)-3-Amino-5-methylpiperidin-1-yl]-N-{[6-(2,6-difluorophenyl)pyridin-2-yl]methyl}pyridin-3-amine]
- IC50 (Pim-3): ≤ 10 nM
- IC50 (Pim-1): < 10 nM
- IC50 (Pim-2): 100 to 1000 nM

Structure (SMILES): C[C@H]1CN(c2ccncc2NCc2ccnc(-c3c(F)cccc3F)n2)C[C@@H](N)[C@@H]1O [Example 30, (3R,4R,5S)-3-Amino-1-[3-({[2-(2,6-difluorophenyl)pyrimidin-4-yl]methyl}amino)pyridin-4-yl]-5-methylpiperidin-4-ol]
- IC50 (Pim-3): 10 to 50 nM
- IC50 (Pim-1): 10 to 50 nM
- IC50 (Pim-2): 1000 to 10000 nM

Structure (SMILES): C[C@@H]1C[C@H](N)CN(c2ccncc2NCc2ccnc(-c3c(F)cccc3F)n2)C1 [Example 31, 4-[(3S,5R)-3-Amino-5-methylpiperidin-1-yl]-N-{[2-(2,6-difluorophenyl)pyrimidin-4-yl]methyl}pyridin-3-amine]
- IC50 (Pim-3): 10 to 50 nM
- IC50 (Pim-1): < 10 nM
- IC50 (Pim-2): 1000 to 10000 nM

Structure (SMILES): C[C@H]1CN(c2ccncc2NCc2ccc(F)c(-c3c(F)cc(N4CCOCC4)cc3F)n2)C[C@@H](N)[C@@H]1O [Example 32, (3R,4R,5S)-3-Amino-1-(3-(((6-(2,6-difluoro-4-morpholinophenyl)-5-fluoropyridin-2-yl)methyl)amino)pyridin-4-yl)-5-methylpiperidin-4-ol]
- IC50 (Pim-3): ≤ 10 nM
- IC50 (Pim-1): < 10 nM
- IC50 (Pim-2): ≤ 100 nM

Structure (SMILES): C[C@@H]1C[C@H](N)CN(c2ccncc2NCc2ccc(F)c(-c3c(F)cc(N4CCOCC4)cc3F)n2)C1 [Example 33, 4-((3S,5R)-3-Amino-5-methylpiperidin-1-yl)-N-((6-(2,6-difluoro-4-morpholinophenyl)-5-fluoropyridin-2-yl)methyl)pyridin-3-amine]
- IC50 (Pim-3): ≤ 10 nM
- IC50 (Pim-1): < 10 nM
- IC50 (Pim-2): ≤ 100 nM

Structure (SMILES): C[C@H]1CN(c2ccncc2NCc2ccc(F)c(-c3c(F)cc(CO)cc3F)n2)C[C@@H](N)[C@@H]1O [Example 35, (3R,4R,5S)-3-Amino-1-{3-[({6-[2,6-difluoro-4-(hydroxymethyl)phenyl]-5-fluoropyridin-2-yl}methyl)amino]pyridin-4-yl}-5-methylpiperidin-4-ol]
- IC50 (Pim-3): ≤ 10 nM
- IC50 (Pim-1): < 10 nM
- IC50 (Pim-2): ≤ 100 nM

Structure (SMILES): C[C@@H]1C[C@H](N)CN(c2ccncc2NCc2ccc(F)c(-c3c(F)cc(CO)cc3F)n2)C1 [Example 36, (4-{6-[({4-[(3S,5R)-3-Amino-5-methylpiperidin-1-yl]pyridin-3-yl}amino)methyl]-3-fluoropyridin-2-yl}-3,5-difluorophenyl)methanol]
- IC50 (Pim-3): ≤ 10 nM
- IC50 (Pim-1): < 10 nM
- IC50 (Pim-2): ≤ 100 nM
